Reference: patent publication US10752626B2, “Iso-citrate dehydrogenase (IDH) inhibitor” (SHANGHAI METON PHARMACEUTICAL CO., LTD, priority 2016, dated 2020)
Read-outs that look alike come from different tables or passages of the source.

How the values were obtained:
[1] = Metabolic stability in mouse plasma; format: in vitro ADME
Procedure: Blank male/female mouse plasma was provided by 3D BioOptima (Suzhou, China) and was freshly collected prior to use. The acetonitrile was purchased from Honeywell International Inc. (New Jersey, U.S.).
At each set time point (0, 15, 30, 60, 120 min), small aliquots from the plasma samples was transferred (each of 20 μL) into the mirocentrifuge tubes, then was added into 200 μL IS containing acetonitrile for protein precipitation. […] All incubations were performed in duplicate. In vitro compound stability was calculated by using the following equations: […]
where Ct is the area ratio of the sample to the IS at […] post-incubation, and C0 is the area ratio of the sample to the IS at 0 h pre-incubation.
In this study, the metabolic stability of the compounds in mouse plasma was assessed according to the method disclosed in Test 3 of the Biological evaluation section.

[2] = In vivo pharmacokinetics in ICR mouse
Procedure: The pharmacokinetic properties of the compounds of the present disclosure were assessed in ICR mice (male, 6-8 weeks, 20.0-25.3 g) after p.o. and i.v. administration.
The ICR mice were purchased from Vital River Laboratory Technology Co., Ltd. (Beijing, China), housed in solid bottom polypropylene cages with sterilized bedding, kept in a room with 40% to 70% humidity, 20 to 25° C. room temperature, 10 to 20 air changes/hour, and on a 12-hour light/dark cycle except when interruptions are necessitated by study activities. The mice were fed with sterilized diet from Shanghai SLAC Laboratory Animal Co., Ltd. (Shanghai, China) and sterilized water. All animals were examined upon receipt and were acclimated for at least 3 days. Only the ones that appear to be healthy were selected for the study basing on overall health, body weight, or other relevant data as appropriate. Individual animal in each group was identified by ear notch.
The mice were fasted overnight prior to treatment, but having free access to drinking water all the time. Before dosing, each mouse was weighed and the actual dose volume for each mouse was calculated by using the formula below: Dose Volume (mL) [Nominal Dose (mg·kg^−1)/Dose Concentration (mg·mL^−1)]×Animal Body Weight (kg)
The actual body weights and the actual dose volumes were recorded accordingly.
For each test group, nine mice were used, and mice in different groups were given a single p.o dose of the test compound at 10 mg·kg^−1, or a single i.v. dose of 2 mg·kg^−1 respectively. Blood samples (e.g., at least […]) were collected into EDTA-K2 tubes at pre-determined time points, for example, pre-dose, 5 min, 15 min, 30 min, 1 h, 2 h, 4 h, 8 h, 12 h, and 24 h post-dose. Each mouse was collected the blood sample at three discontinuous time points, and three mice were used for sampling at each time point. The collected samples were centrifuged at 5500 rpm for 10 min to obtain plasma samples, which were later measured by LC-MS/MS. Data of plasma concentration vs. time were processed by linear regression analysis. All pharmacokinetic parameters were calculated using non-compartment model of Pharsight Phoenix 6.3.
The pharmacokinetics (PK) studies of the compounds were conducted in ICR mice (male, 6-8 weeks, 20.0-25.3 g, Vital River Laboratory Technology Co., Ltd.) administrated a single p.o. dose of 10 mg·kg^−1 or a single i.v. dose of 2 mg·kg^−1 according to the method disclosed in Test 4 of the Biological evaluation section.
Each experiment was independently performed in triplicate. The plasma concentration of an exemplary Compound 23 after a p.o. administration of 10 mg·kg^−1 in ICR mouse is plotted as function of time in FIG. 6. The plasma concentration of the exemplary Compound 23 after an i.v. injection of 2 mg·kg^−1 in ICR mouse is plotted as function of time in FIG. 7. Each data represents the mean plasma concentration of the three experiments with standard error of mean (SEM) as error bars.

[3] = male, plasma, iv, i.v. dose of 2 mg · kg^−1
[4] = male, plasma, po, p.o. dose of 10 mg · kg^−1

SMILES: CCN1Cc2c(ccnc2N[C@@H](C)c2ccc(Oc3ccc(C)cc3)cc2)C1=O [Compound 16, (S)-2-ethyl-4-(1-(4-(p-tolyloxy)phenyl)ethylamino)-2,3-dihydro-1H-pyrrolo [3,4-c]pyridin-1-one]
- period over which compound remains stable in mouse plasma [1]: at least 2 hrs
- K ([1]; #2): 0.000737 min⁻¹
- K ([1]; Mean): 0.000737 min⁻¹
- half-life at 2 μM ([1]; both sexes, #2): 15.7 h
- % remaining #1 ([1]; incubation 0 min): 100%
- % remaining #2 ([1]; incubation 0 min): 100%
- Ln (% remaining) #1 ([1]; incubation 0 min): 4.61
- Ln (% remaining) #2 ([1]; incubation 0 min): 4.61
- Mean Ln(% remaining) ([1]; incubation 0 min): 4.61
- % remaining #1 ([1]; incubation 15 min): 99.8%
- % remaining #2 ([1]; incubation 15 min): 106%
- Ln (% remaining) #1 ([1]; incubation 15 min): 4.60
- Ln (% remaining) #2 ([1]; incubation 15 min): 4.66
- Mean Ln(% remaining) ([1]; incubation 15 min): 4.63
- % remaining #1 ([1]; incubation 30 min): 95.0%
- % remaining #2 ([1]; incubation 30 min): 102%
- Ln (% remaining) #1 ([1]; incubation 30 min): 4.55
- Ln (% remaining) #2 ([1]; incubation 30 min): 4.62
- Mean Ln(% remaining) ([1]; incubation 30 min): 4.59
- % remaining #1 ([1]; incubation 60 min): 98.4%
- % remaining #2 ([1]; incubation 60 min): 98.9%
- Ln (% remaining) #1 ([1]; incubation 60 min): 4.59
- Ln (% remaining) #2 ([1]; incubation 60 min): 4.59
- Mean Ln(% remaining) ([1]; incubation 60 min): 4.59
- % remaining #1 ([1]; incubation 120 min): 105%
- % remaining #2 ([1]; incubation 120 min): 94.1%
- Ln (% remaining) #1 ([1]; incubation 120 min): 4.65
- Ln (% remaining) #2 ([1]; incubation 120 min): 4.54
- Mean Ln(% remaining) ([1]; incubation 120 min): 4.60
- average percentage remaining ([1]; within the 2 hrs period): above 98.5%

SMILES: CCN1Cc2c(ccnc2N[C@@H](C)c2ccc(Oc3ccccc3)c(F)c2)C1=O [Compound 23, (S)-2-ethyl-4-((1-(3-fluoro-4-phenoxyphenyl)ethyl)amino)-2,3-dihydro-1H-pyrrolo[3,4-c]pyridin-1-one]
- AUMC0-inf ([2]; i.v. dose of 2 mg · kg^−1): 1283 ng · h^2 · mL^−1
- AUMC0-t ([2]; i.v. dose of 2 mg · kg^−1): 1138 ng · h^2 · mL^−1
- Kel ([2]; i.v. dose of 2 mg · kg^−1): 0.244 h⁻¹
- MRTIV ([2]; i.v. dose of 2 mg · kg^−1): 0.98 h
- AUC(0-t) [2, 3]: 1300 ng·h/mL
- clearance [2, 3]: 25.4 mL/min/kg
- half-life [2, 3]: 2.8 h
- AUC0-inf ([2]; male, plasma, iv, i.v. dose of 2 mg · kg^−1, read-out: AUC0-inf): 1310 ng·h/mL
- Vd ([2]; male, plasma, iv, i.v. dose of 2 mg · kg^−1, read-out: Vdss): 1.49 L/kg
- AUC(0-t) [2, 4]: 2890 ng·h/mL
- Cmax [2, 4]: 1180 ng/mL
- Tmax [2, 4]: 0.25 h
- half-life [2, 4]: 1.8 h
- AUC0-inf ([2]; p.o. dose of 10 mg · kg^−1): 2917 ng · h · mL^1
- AUMC0-inf ([2]; p.o. dose of 10 mg · kg^−1): 7550 ng · h^2 · mL^−1
- AUMC0-t ([2]; p.o. dose of 10 mg · kg^−1): 7099 ng · h^2 · mL^−1
- F ([2]; p.o. dose of 10 mg · kg^−1): 44%
- Kel ([2]; p.o. dose of 10 mg · kg^−1): 0.385 h⁻¹
- MRTPO ([2]; p.o. dose of 10 mg · kg^−1): 2.6 h
